In patent publication US20250326744A1, “PIPERAZINE DERIVATIVE OR SALT THEREOF, AND PHARMACEUTICAL COMPOSITION” (priority 2022, published 2025):
Where a name gives a salt, the structure may show the parent alone.

Legend:
mexY (EC) strain = assay: Efflux ability inhibition effect on drug efflux pump MexY (Test Examples 1 and 3): proliferation (OD595) of mexY (EC) strain with EM or LVFX at 1/4 MIC, EC75; type: cell-based, Escherichia coli; conditions: Table 51, Test Example 1, 16 to 20 hours culture, OD595; for EC75, mexY (EC) strain, EM: combined with EM at 1/4 MIC; for EC75, mexY (EC) strain, LVFX: combined with LVFX at 1/4 MIC
Description: The efflux ability inhibition effect of the test compound on the drug efflux pump was evaluated using the bacterial proliferative ability in the presence of EM or LVFX as an index.
EM is a macrolide antibacterial agent and is a drug that is discharged outside the bacteria by MexB and MexY LVFX is a quinolone antibacterial agent and is a drug that is discharged outside the bacteria by MexB and MexY In a case where the test compound has an efflux ability inhibitory ability against the drug efflux pump, the proliferation of bacteria is suppressed by the combined use of EM or LVFX and the test compound, as compared with the case where EM or LVFX is used alone.
A mutant strain (hereinafter, referred to as an “mexB (EC) strain”) obtained by transferring the genes of the main multidrug efflux system MexAB-OprM of Pseudomonas aeruginosa described in Nature, 2013, Vol. 500, pp. 102 to 106 as a plasmid into Escherichia coli strains in which the acrB and tolC genes of the multidrug efflux system AcrAB-TolC were deleted as described in Journal of Infection and Chemotherapy 2008, Vol. 14, pp. 23 to 29, and a gene transfer strain (hereinafter, referred to as an “mexY (EC) strain”) of another main multidrug efflux system MexXY-OprM of Pseudomonas aeruginosa were used for the evaluation of test compounds.
In the mexB (EC) strain, an expression level of MexB of the drug efflux pump is accelerated, and in the mexY (EC) strain, an expression level of MexY of the drug efflux pump is accelerated.
For culturing each Escherichia coli strain, a 96-well plate (amount of culture medium per well: 100 μL) was used and Luria-Bertani broth (LB) culture medium was used. The inoculation amount of the bacteria was set to 10^4 to 5 CFU/well.
The mexB (EC) strain and the mexY (EC) strain were cultured for 16 to 20 hours in a culture medium to which EM or LVFX and test compounds at various concentrations (0 to 800 μM) were added, and the proliferation of the bacterial strains was evaluated by optical turbidity at 595 nm (OD595). The concentration of the antibacterial agents (EM and LVFX) in the culture medium were each set to ¼ of the minimum inhibitory concentration (MIC) (hereinafter, referred to as ¼ MIC) of the single antibacterial agent.
The proliferation of bacteria in a case where the antibacterial agent was added at the concentration of ¼ MIC in a case where the test compound was not added was measured, and compared with the proliferation of bacteria in a case where the test compound was contained, and the lowest concentration of the test compound at which the proliferation was inhibited by 75% or more was defined as the drug efflux pump inhibitory ability of the test compound as 75% inhibitory effect concentration (EC75).
The drug efflux pump inhibitory ability of each test compound in a case of being used in combination with the antibacterial agent against the mexB (EC) strain and the mexY (EC) strain was evaluated as follows according to the value of EC75. • S: EC75≤[…] • A: 12.5 μM<EC75≤25 μM • B: 25 μM<EC75≤100 μM • C: […]
In the same manner as in Test Example 1, the efflux ability inhibition effect of the test compound on the drug efflux pump was evaluated using the bacterial proliferation ability in the presence of EM or LVFX as an index.

S-3769 strain = assay: Combinational effect with antibacterial agent against Pseudomonas aeruginosa (Test Examples 2 and 4): S-3769 strain with AMK or GM at 1/4 MIC, EC99; type: cell-based; conditions: for EC99, combinational effect with AMK, S-3769 strain / EC99, S-3769 strain, AMK: combined with AMK at 1/4 MIC; for EC99, combinational effect with AMK, S-3769 strain / EC99, combinational effect with GM, S-3769 strain: Test Example 4; for EC99, combinational effect with GM, S-3769 strain / EC99, S-3769 strain, GM: combined with GM at 1/4 MIC; for EC99, S-3769 strain, AMK / EC99, S-3769 strain, GM: Table 52, Test Example 2, 16 to 20 hours culture, OD595
In short: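 P. aeruginosa S-3769 (clinical isolate, MexY overexpressed) grown 16–20 h in CAMHB, 10^4 to 5 CFU/well, with AMK or GM at ¼ MIC plus test compound 0–800 μM. Growth read as OD595; EC99 is the lowest compound concentration giving ≥99% growth inhibition.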

mexB (PA) strain = assay: Combinational effect with antibacterial agent against Pseudomonas aeruginosa (Test Examples 2 and 4): mexB (PA) strain with LVFX, TC or AZT at 1/4 MIC, EC99; type: cell-based; conditions: for EC99, combinational effect with AZT, mexB (PA) / EC99, combinational effect with LVFX, mexB (PA) / EC99, combinational effect with TC, mexB (PA): mexB (PA) strain, Test Example 4; for EC99, combinational effect with AZT, mexB (PA) / EC99, mexB (PA), AZT: combined with AZT at 1/4 MIC; for EC99, combinational effect with LVFX, mexB (PA) / EC99, mexB (PA), LVFX: combined with LVFX at 1/4 MIC; for EC99, combinational effect with TC, mexB (PA) / EC99, mexB (PA), TC: combined with TC at 1/4 MIC; for EC99, mexB (PA), AZT / EC99, mexB (PA), LVFX / EC99, mexB (PA), TC: Table 52, Test Example 2, 16 to 20 hours culture, OD595
In short: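 P. aeruginosa mexB (PA) strain, lacking MexCD-OprJ, MexEF-OprN and MexXY and overexpressing MexAB-OprM, grown 16–20 h in CAMHB (10^4–5 CFU/well) with LVFX, TC or AZT at ¼ MIC plus test compound at 0–800 μM. Growth read as OD595; EC99 is the lowest compound concentration giving ≥99% growth inhibition.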

| SMILES | EC75, mexY (EC) strain, EM (mexY (EC) strain) | EC75, mexY (EC) strain, LVFX (mexY (EC) strain) | EC99, combinational effect with AMK, S-3769 strain (S-3769 strain) | EC99, combinational effect with GM, S-3769 strain (S-3769 strain) | EC99, combinational effect with AZT, mexB (PA) (mexB (PA) strain) | EC99, combinational effect with LVFX, mexB (PA) (mexB (PA) strain) | EC99, combinational effect with TC, mexB (PA) (mexB (PA) strain) | EC99, S-3769 strain, AMK (S-3769 strain) | EC99, S-3769 strain, GM (S-3769 strain) | EC99, mexB (PA), AZT (mexB (PA) strain) | EC99, mexB (PA), LVFX (mexB (PA) strain) | EC99, mexB (PA), TC (mexB (PA) strain) |
| --- | --- | --- | --- | --- | --- | --- | --- | --- | --- | --- | --- | --- |
| CCOc1cccc(F)c1CN1CCN(C(=O)[C@H](N)C2CCN(CC(F)c3ccccc3)CC2)CC1 (stereo partly drawn) [Example 59, Hydrobromide of (2R)-2-amino-1-(4-(2-ethoxy-6-fluorobenzyl)piperazin-1-yl)-2-(1-(2-fluoro-2-phenylethyl)piperidin-4-yl) ethan-1-one] | B (25 μM<EC75≤100 μM) | B (25 μM<EC75≤100 μM) | – | – | – | – | – | – | – | – | – | – |
| CCOc1cccc(F)c1CN1CCN(C(=O)[C@H](N)C2CCN(CCC3CCCC3)CC2)CC1 [Example 41, Hydrobromide of (R)-2-amino-2-(1-(2-cyclopentylethyl)piperidin-4-yl)-1-(4-(2-ethoxy-6-fluorobenzyl)piperazin-1-yl) ethan-1-one] | A (12.5 μM<EC75≤25 μM) | A (12.5 μM<EC75≤25 μM) | – | – | – | – | – | – | – | – | – | – |
| CCOc1cccc(F)c1CN1CCN(C(=O)[C@H](N)C2CCN(CCc3cc(Cl)ccc3-c3cccc(O)c3F)CC2)CC1 [Example 595, Hydrochloride of (R)-2-amino-2-(1-(2-(4-chloro-2-fluoro-3′-hydroxy-[1,1-biphenyl]-2-yl)ethyl)piperidin-4-yl)-1-(4-(2-ethoxy-6-fluorobenzyl)piperazin-1-yl)ethan-1-one] | – | – | S (EC99≤12.5 μM) | A (12.5 μM<EC99≤25 μM) | S (EC99≤12.5 μM) | S (EC99≤12.5 μM) | S (EC99≤12.5 μM) | – | – | – | – | – |
| CCOc1cccc(F)c1CN1CCN(C(=O)[C@H](N)C2CCN(CCc3cccc4ccc(OC)cc34)CC2)CC1 [Example 149, Hydrobromide of (R)-2-amino-1-(4-(2-ethoxy-6-fluorobenzyl)piperazin-1-yl)-2-(1-(2-(7-methoxynaphthalen-1-yl)ethyl)piperidin-4-yl)ethan-1-one] | – | – | – | – | – | – | – | S (EC99≤12.5 μM) | S (EC99≤12.5 μM) | C (100 μM<EC99) | C (100 μM<EC99) | B (25 μM<EC99≤100 μM) |
| CCSc1cc(F)ccc1CN1CCN(C(=O)[C@H](N)C2CCN(CCc3cc(Cl)ccc3-c3cccc(F)c3)CC2)CC1 [Example 554, Hydrobromide of (R)-2-amino-2-(1-(2-(4-chloro-3′-fluoro-[1,1-biphenyl]-2-yl)ethyl)piperidin-4-yl)-1-(4-(2-(ethylthio)-4-fluorobenzyl)piperazin-1-yl)ethan-1-one] | – | – | A (12.5 μM<EC99≤25 μM) | S (EC99≤12.5 μM) | S (EC99≤12.5 μM) | S (EC99≤12.5 μM) | S (EC99≤12.5 μM) | – | – | – | – | – |
| CSc1ccccc1CN1CCN(C(=O)[C@H](N)C2CCN(CCc3cc(Cl)ccc3-c3cc(O)cc(F)c3)CC2)CC1 [Example 617, (R)-2-amino-2-(1-(2-(4-chloro-3′-fluoro-5′-hydroxy-[1,1′-biphenyl]-2-yl)ethyl)piperidin-4-yl)-1-(4-(2-(methylthio)benzyl)piperazin-1-yl)ethan-1-one] | – | – | S (EC99≤12.5 μM) | S (EC99≤12.5 μM) | S (EC99≤12.5 μM) | S (EC99≤12.5 μM) | S (EC99≤12.5 μM) | – | – | – | – | – |
| CCOc1cccc(F)c1CN1CCN(C(=O)[C@H](N)C2CCN(CCc3cc(Cl)ccc3-c3ccccc3Cl)CC2)CC1 [Example 44, (R)-2-amino-2-(1-(2-(2′,4-dichloro-[1,1′-biphenyl]-2-yl)ethyl)piperidin-4-yl)-1-(4-(2-ethoxy-6-fluorobenzyl)piperazin-1-yl)ethan-1-one] | – | – | – | – | – | – | – | S (EC99≤12.5 μM) | S (EC99≤12.5 μM) | S (EC99≤12.5 μM) | A (12.5 μM<EC99≤25 μM) | S (EC99≤12.5 μM) |
| CSc1ccccc1CN1CCN(C(=O)[C@H](N)C2CCN(CCc3cc(Cl)ccc3-c3cccc(N)c3)CC2)CC1 [Example 600, Hydrochloride of (R)-2-amino-2-(1-(2-(3′-amino-4-chloro-[1,1-biphenyl]-2-yl)ethyl)piperidin-4-yl)-1-(4-(2-(methylthio)benzyl)piperazin-1-yl)ethan-1-one] | – | – | A (12.5 μM<EC99≤25 μM) | A (12.5 μM<EC99≤25 μM) | S (EC99≤12.5 μM) | S (EC99≤12.5 μM) | S (EC99≤12.5 μM) | – | – | – | – | – |
| CCOc1cccc(F)c1CN1CCN(C(=O)[C@H](N)C2CCN(CCc3cc(Cl)ccc3-c3cccc(P(C)(C)=O)c3)CC2)CC1 [Example 58, Hydrobromide of (R)-2-amino-2-(1-(2-(4-chloro-3′-(dimethylphosphoryl)-[1,1′-biphenyl]-2-yl)ethyl)piperidin-4-yl)-1-(4-(2-ethoxy-6-fluorobenzyl)piperazin-1-yl) ethan-1-one] | – | – | – | – | – | – | – | A (12.5 μM<EC99≤25 μM) | B (25 μM<EC99≤100 μM) | C (100 μM<EC99) | C (100 μM<EC99) | C (100 μM<EC99) |
| CSc1ccccc1CN1CCN(C(=O)[C@H](N)C2CCN(CCc3cc(Cl)ccc3-c3cccc(O)c3)CC2)CC1 [Example 611, Hydrochloride of (R)-2-amino-2-(1-(2-(4-chloro-3′-hydroxy-[1,1-biphenyl]-2-yl)ethyl)piperidin-4-yl)-1-(4-(2-(methylthio)benzyl)piperazin-1-yl)ethan-1-one] | – | – | S (EC99≤12.5 μM) | B (25 μM<EC99≤100 μM) | S (EC99≤12.5 μM) | S (EC99≤12.5 μM) | S (EC99≤12.5 μM) | – | – | – | – | – |
